The test deals with T1, RARα (Homo sapiens, UniProt P10276).
T1 sequence (P10276 1-462): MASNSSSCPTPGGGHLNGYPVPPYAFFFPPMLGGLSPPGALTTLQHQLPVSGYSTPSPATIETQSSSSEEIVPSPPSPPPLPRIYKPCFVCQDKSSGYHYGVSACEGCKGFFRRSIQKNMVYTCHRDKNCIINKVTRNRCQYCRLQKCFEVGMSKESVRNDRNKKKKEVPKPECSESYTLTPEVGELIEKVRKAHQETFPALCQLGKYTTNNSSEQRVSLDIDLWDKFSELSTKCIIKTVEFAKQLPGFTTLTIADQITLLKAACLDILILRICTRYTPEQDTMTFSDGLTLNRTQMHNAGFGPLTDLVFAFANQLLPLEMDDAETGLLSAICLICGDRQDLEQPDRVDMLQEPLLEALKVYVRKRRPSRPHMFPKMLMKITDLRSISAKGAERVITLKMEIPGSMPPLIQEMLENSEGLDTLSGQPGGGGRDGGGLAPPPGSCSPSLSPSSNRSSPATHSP
Description: co-transfection assay, antagonist activity on RARα. The test is classed as cell-based. Particulars: CV-1 cells, in presence of known RAR agonist TTNPB; for pIC50: read-out: IC50 antagonist potency, RARα. Also on record: expressed in transfected cells; host or cells: CV-1 cells (African green monkey kidney). The text has this: This assay is described in further detail in U.S. Pat. Nos. 4,981,784 and 5,071,773, the disclosures of which are incorporated herein by reference.
In the co-transfection assay, a cloned cDNA for an IR (e.g., human RARα:, RARβ, RXRγ) under the control of a constitutive promoter (e.g., the SV 40 promoter) is introduced by transfection (a procedure to induce cells to take up foreign genes) into a background cell substantially devoid of endogenous IRs. This introduced gene directs the recipient cells to make the IR protein of interest. A second gene is also introduced (co-transfected) into the same cells in conjunction with the IR gene. This second gene, comprising the cDNA for a reporter protein, such as firefly luciferase (LUC), is controlled by an appropriate hormone responsive promoter containing a hormone response element (HRE). This reporter plasmid functions as a reporter for the transcription-modulating activity of the target IR. Thus, the reporter acts as a surrogate for the products (mRNA then protein) normally expressed by a gene under control of the target receptor and its native hormone.
The co-transfection assay can detect small molecule agonists or antagonists of target IRs. Exposing the transfected cells to an agonist ligand compound increases reporter activity in the transfected cells. This activity can be conveniently measured, e.g., by increasing luciferase production, which reflects compound-dependent, IR-mediated increases in reporter transcription. To detect antagonists, the co-transfection assay is carried out in the presence of a constant concentration of an agonist to the target IR (e.g., all-trans retinoic acid for RARα) known to induce a defined reporter signal. Increasing concentrations of a suspected antagonist will decrease the reporter signal (e.g., luciferase production). The co-transfection assay is therefore useful to detect both agonists and antagonists of specific IRs. Furthermore, it determines not only whether a compound interacts with a particular IR, but whether this interaction mimics (agonizes) or blocks (antagonizes) the effects of the native regulatory molecules on target gene expression, as well as the specificity and strength of this interaction.
CV-1 cells (African green monkey kidney fibroblasts) were cultured in the presence of Dulbecco's Modified Eagle Medium (DMEM) supplemented with 10% charcoal resin-stripped fetal bovine serum then transferred to 96-well microtiter plates one day prior to transfection.
To determine RAR and/or RXR agonist activity of the compounds of the present invention, the CV-1 cells were transiently transfected by calcium phosphate coprecipitation according to the procedure of Berger et al., 41 J. Steroid Biochem. Mol. Biol., 733 (1992) with the following receptor expressing plasmids: pRShRARα: Giguere et al., 330 Nature, 624 (1987); pRShRARβ and pRShRARγ, Ishikawa et al., 4 Mol. Endocrin., 837 (1990); pRShRXRα, Mangelsdorf et al., 345 Nature, 224 (1990); and pRSmRXRβ and pRSmRXRγ, Mangelsdorf et al., 6 Genes & Devel., 329 (1992), the disclosures of which are herein incorporated by reference. Each of these receptor expressing plasmids was co-transfected at a concentration of 5 ng/well, along with a basal reporter plasmid at 100 ng/well, the internal control plasmid pRS-β-Gal at 50 ng/well and filler DNA, pGEM at 45 ng/well.
The basal reporter plasmid D-MTV-LUC (Hollenberg and Evans, 55 Cell, 899 (1988), the disclosure of which is herein incorporated by reference) containing two copies of the TRE-palindromic response element described in Umesono et al., 336 Nature, 262 (1988), the disclosure of which is herein incorporated by reference, was used in transfections for the RARs, and the reporter plasmid CRBPIIFKLUC, which contains an RXRE (retinoid X receptor response element, as described in Mangelsdorf et al., 66 Cell, 555 (1991), the disclosure of which is herein incorporated by reference), was used in transfections for the RXRs.

pIC50: −log10 of the molar value.

Turning to `CCCCOc1c(C(C)(C)C)cc(/C(C)=C/C=C/C(C)=C/C(=O)O)cc1C(C)(C)C` [Compound 7, 2E, 4E, 6E-[7-(3,5-Di-t-butyl-4-n-butoxyphenyl)-3-methyl]-octa-2,4,6-trienoic acid], the “efficacy of antagonist, % of maximal inhibition, RARα (in parentheses after IC50)” value is 90% and the pIC50 (commonly the negative decadic logarithm of the IC50, by convention in mol/L) was 8.40.
`CCCOc1c(C(C)(C)C)cc(/C(C)=C/C=C/C(C)=C/C(=O)O)cc1C(C)(C)C` [Compound 8, 2E, 4E, 6E-[7-(3,5-Di-t-butyl-4-n-propoxyphenyl)-3-methyl]-octa-2,4,6-trienoic acid]: the “efficacy of antagonist, % of maximal inhibition, RARα (in parentheses after IC50)” value worked out at 90% and the pIC50 is 8.70.
On to `CCCCCOc1c(C(C)(C)C)cc(/C(C)=C/C=C/C(C)=C/C(=O)O)cc1C(C)(C)C` [Compound 9, 2E, 4E, 6E-[7-(3,5-Di-t-butyl-4-n-pentoxyphenyl)-3-methyl]-octa-2,4,6-trienoic acid], for which the “efficacy of antagonist, % of maximal inhibition, RARα (in parentheses after IC50)” value stood at 91% and the pIC50 was 8.30.
For `C=C(c1ccccc1)c1cc(/C(C)=C/C=C/C(C)=C/C(=O)O)cc(C(C)(C)C)c1` [Compound 17, (2E,4E,6E)-7-[3-t-butyl-5-(1-phenyl-vinyl)-phenyl]-3-methyl-octa-2,4,6-trienoic acid], in that order: 98% and 8.70.

Source of the values: patent US5998654A, “Retinoic acid receptor antagonist compounds and methods” (Ligand Pharmaceuticals Incorporated, priority 1997, dated 1999).
